The record followed here is patent publication US20230132823A1, “BI-FUNCTIONAL COMPOUNDS AND METHODS FOR TARGETED UBIQUITINATION OF ANDROGEN RECEPTOR” (MONTELINO THERAPEUTICS, INC., priority 2020, published 2023).

For assay [1], the system named is 22Rv1-Enz^R. The assay can be described thus: 22Rv1-Enz^R cell proliferation assay, GIC50 (Experimental Example 4). The format is cell-based. The note with it: Homo sapiens; 6-day culture, cell media changed every 24 hours. The protocol: Selected compounds were tested in the human prostate cancer cell line, 22Rv1-Enz^R as described in Geun Taek Lee et al., Molecular Cancer Therapeutics, 20:490-9 (2021). These procedures are similar to that described in Experimental Example 1, above, except that the assay conditions are a 6-day culture with cell media changed every 24 hours.
In the Table: (+)—GIC50<20 μM; (++)—GIC50<10 μM; (+++)—GIC50<1 μM.

Assay [2] concerns LNCaP. The assay can be described thus: LNCaP cell proliferation. The format is cell-based, human. The note with it: androgen-responsive cell line; 1 μM. The protocol: The human prostate cancer cell line, 22Rv1 has been reported to express a high level of AR-V7. Thus, 22Rv1 was seeded at 50,000 cells/well on a 24-well plate in quadruplicates and treated with test compound in concentrations ranging up to 20 μM for four days. Standard culture media was RPMI-1640 supplemented with 10% fetal bovine serum. The test compound initially was dissolved in DMSO at 50 mM. This stock solution was then diluted as needed for the indicated concentrations. At the end of the four-day period, cells were harvested using 1% trypsin and counted using an automated cell counter.
Cell Culture. Human CaP cell lines, LNCaP, 22Rv1, VCaP, PC3, and DU145 are obtained from the American Type Culture Collection (ATCC) and maintained in the standard culture media: RPMI-1640 supplemented with 10% fetal bovine serum (FBS). LNCaP, 22Rv1, and VCaP are androgen-responsive cell lines, while PC3 and DU145 are not. To establish SAT resistant CaP cell lines, LNCaP, 22Rv1, and VCaP are treated continuously with 10-50 μM abiraterone, apalutamide, darolutamide, or enzalutamide. […] Mycoplasma contamination is also assessed using a PCR based detection system.

In general, IC50 refers to the concentration that inhibits the measured activity by half. Low values mean inhibition by little substance, high ones a need for much substance. Turning to `Cc1ncsc1-c1ccc([C@H](C)NC(=O)[C@@H]2C[C@@H](O)CN2C(=O)[C@@H](NC(=O)CCCCNC(=O)COc2c(-c3csc(N4CCOCC4)n3)ccc(F)c2F)C(C)(C)C)cc1` [Example 16, (2S,4R)-1-((S)-2-(5-(2-(2,3-difluoro-6-(2-morpholinothiazol-4-yl)phenoxy)acetamido)pentanamido)-3,3-dimethylbutanoyl)-4-hydroxy-N-((S)-1-(4-(4-methylthiazol-5-yl)phenyl)ethyl)pyrrolidine-2-carboxamide], in assay [1], the IC50 was less than 1000 nM. Moreover, the “effect on proliferation of LNCaP” value in assay [2] is “inhibits the proliferation”.
